For this test, the system named is LL/2 lung cancer tumor endothelial cells. Briefly: Lung LL2 ex vivo model of tumor angiogenesis. It is filed as cell-based, mouse. The settings on record: 20 μm. An outline of the steps: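 Live/dead imaging with FDA and PI, taken e.g. 48 h post-drug under fixed channel settings, measures treatment effects on endothelial cells sprouting from Lewis lung tumor explants. Explants were seeded in Matrigel drops and grown ~4 days in endothelial growth medium, 37 °C, 5% CO2, before dosing.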

As to `CCCCCCCCCCCCCCOc1ccc(S(=O)(=O)c2cnc3ccc([S+](C)[O-])cc3c2N2CCC(N3CCC(N4CCN(C)CC4)CC3)CC2)cc1` (centres unmarked) [Compound 346], the “48 hrs (morphology observations)” value (48 hours, LL/2 tumor endothelial cells) was “* (50% or less of cells vesicularize in cell shape)”. Besides, the Cell death (drug treatment for two days, ratio of red area to total endothelial cell area) worked out at 20%.
